Converted amounts (≈) assume the structure as drawn. Where two headings read alike, the source gives them in different places.
Columns and labels:
leukemic K562/R7 cells = details: literature; cited from earlier work
MDA435/LCC6 MDR cells [1] = test: cells; details: MDA435/LCC6 MDR; for doxorubicin resistance reversal: monomers; for reversing effect on taxol resistance: monomers at 10 μM
Method: (§1) MDA435/LCC6 and P388 (both parent and MDR subtype) were maintained in DMEM and RPMI 1640 culture medium supplemented with 10% FBS, respectively. RPMI 1640 media also contained 100 units/ml penicillin and 100 μg/ml streptomycin. Cells were cultured at 37° C. in a humidified atmosphere with 5% CO2. A solution of 0.05% trypsin-EDTA was used to detach the MDA435/LCC6 (both wild type and MDR subtype) cells.
(§2) Cell proliferation assay. MDA435/LCC6 and P388 (both parent and MDR subtype) cells were seeded at 2000 and 5000 cells per well, respectively, in 96-well plates. Varying concentrations of anticancer drugs (Doxorubicin, Daunorubicin, Vincristine, Vinblastine, taxol, Mitoxantrone) with or without the flavonoid dimers were added in a final volume of 200 μl and cells were grown for 4 and 3 days for MDA435/LCC6 and P388 (both parent and MDR subtype) cells, respectively. For MDA435/LCC6 (both parent and MDR subtype), the corresponding drugs were added after cell attachment (24 hr incubation). To measure cell proliferation, the cell Titer 960 Aqueous Assay (Promega) was used according to the manufacturer's instructions. Briefly, MTS (2 mg/ml) and PMS (0.92 mg/ml) were mixed in a ratio of 20:1. 30 μl MTS/PMS mixture was added into each well and incubated for 2 hours at 37° C. Optical absorbance at 490 nm was then recorded using an ELISA microtiter plate reader (Bio-Rad). Each experiment was done at least in triplicate and repeated twice. Cytotoxicity of the anticancer drugs was expressed as the fraction of the cells survived relative to the untreated DMSO (0.05%) solvent controls.
MDA435/LCC6 is an estrogen-independent human breast cancer cell line. Its MDR subtype (MDA435/LCC6 MDR) was generated by transducing a retroviral vector directing the constitutive expression of the human MDR1 cDNA, producing a cell line with a classical MDR1 resistance pattern (MDA435/LCC6 and MDA435/LCC6MDR1: ascites models of human breast cancer. Br J Cancer 1996, 73, 154-161). The ability of the apigenin dimers of this invention to reverse taxol resistance in MDA435/LCC6 MDR cells were tested. […] Apigenin monomers 10a and 10b at 10 μM were used as the negative controls.

MDA435/LCC6 MDR cells [2] = test: Doxorubicin accumulation; assay type: cell-based, human; details: LCC6 MDR; apigenin dimers 10 μM; 20 μM doxorubicin, 2 h
Method: Doxorubicin accumulation. 2.5 ml (10^5 cells/ml) MDA435/LCC6 (both parent and MDR subtype) cells were seeded in each well of 6-well plates. At confluence, culture medium was removed. 2 ml of fresh DMEM with modulators was added and cells were incubated for 30 min at 37° C. Doxorubicin (final concentration of 20 μM) was then added and incubated for 2 h at 37° C. The cells were then harvested by trypsinization.
(§3) For P388 (both parent and MDR subtype) cells, 1 ml (10^5 cells) confluent cells were aliquot into Eppendorf tube and pre-incubated with flavone dimers for 30 min at 37° C. Doxorubicin (final concentration of 10 μM) was then added and incubated for 2 h at 37° C. at a final concentration of 10 μM. The cell pellets were washed 3 times with cold PBS by using an Eppendorf micro-centrifuge and lysed with 0.3N HCL in 50% ethanol, and sonicated for 30s. After centrifugation at 10000 rpm/min for 3 min, the supernatant was saved. The fluorescence of doxorubicin was measured using a spectrofluorometer (λexcite=470 nm, λemit=585 nm).
In order to understand whether the modulating activity for various anticancer drugs by different dimers is due to their different ability to modulate P-gp mediated drug efflux, their effects on the accumulation of doxorubicin in both MDA435/LCC6 sensitive and resistant cells were investigated. Doxorubicin was a fluorescent drug substrate of P-gp and was used in this experiment to monitor the P-gp mediated drug efflux. Accumulation of doxorubicin in these cells was determined in the presence or absence of apigenin dimers (10 μM) and monomer (20 μM). Verapamil was used as a positive control.

P388/ADR cells [3] = test: Doxorubicin accumulation; assay type: cell-based, murine; details: monomer 10b at double concentration of the dimers, FIG. 11A
Method: as §3

[4] = tested on: pentamidine-resistant L. enriettii LePentR50 promastigotes; test: microbe, parasite or virus in culture; details: for pentamidine sensitization: LePentR50, FIG. 18A
Method: (§4) Cell lines and Cell Culture. Promastigotes of Leishmania enriettii (LePentR50, Le wild type, LeMDR1 −/− and LeMDR1-overexpressed LeV160 mutants) and Leishmania donovani (LdAG83, Ld2001 and Ld39) were employed in this study. The former is a natural infective strain of guinea pig and the latter is a clinical strain, which may cause visceral leishmaniasis in human. Both strains were cultured in Schneider's Drosophila Medium (Invitrogen), pH 6.9 supplemented with 10% (v/v) heat inactivated fetal calf serum (Hyclone) with 4 mM glutamine (Sigma) and 25 μg/mL gentamicin solution (Invitrogen), at 27° C. for 4 days (Cloning and functional analysis of an extrachromosomally amplified multidrug resistance-like gene in Leishmania enriettii. Mol. Biochem. Parasitol 1993, 60, 195-208).
(§5) Promastigotes of LeV160 were culture in the presence of 160 μg/mL vinblastine. No pentamidine and vinblastine (Sigma) was added to the Le wild type and LeMDR1 −/− mutant.
(§6) The viability of promastigotes was determined by the Cell Titer 96® Aqueous Assay (Promega) that employs a tetrazolium compound (MTS) and electron coupling reagent, phenazine methosulfate (PMS). Promastigotes were seeded into 96-well flat bottom microtiter plate at 1×10^5 cells per well in a final volume of 100 μL medium. To determine the cytotoxic effects of flavonoid dimers to the parasites, various concentrations of flavonoid dimers were added to the promastigotes. To determine the reversal effects of flavonoid dimers with different spacer lengths, various concentrations of antileishmanial drugs, one of pentamidine or SSG, vinblastine and puromycin was added to the wells with or without flavonoid dimers. The parasites were incubated at 27° C. for 72 hrs. Each concentration of antileishmanials with or without the flavonoid dimers was tested in triplicates in each experiment. A 2 mg/mL MTS and 0.92 mg/mL PMS were mixed at a ratio of 20:1 (MTS: PMS). After 72-hr incubation, 10 μL of MTS:PMS mixture was added into each well of microtiter plate. The plate was then incubated at 27° C. for 4 hrs for color development. After 4 hrs of incubation, the OD values were determined at 490 nm using automatic microtiter plate reader (Bio-Rad).

[5] = tested on: wild type L. donovani LdAG83 promastigotes; test: Leishmania cell viability (MTS) assay; assay type: cell-based, Leishmania donovani; details: for IC50: read-out: IC50(μM) of synthetic flavonoid, LdAG83
Method: as §4, with “195-208). […]” for “195-208).”
as §6

[6] = tested on: SSG-resistant L. donovani Ld39 promastigotes; test: microbe, parasite or virus in culture; assay type: cell-based, Leishmania donovani; details: for IC50: read-out: IC50(μM) of synthetic flavonoid, Ld39; for SSG resistance modulating activity: 12 μM, FIG. 14B
Method: as §4, with “195-208). […]” for “195-208).”
as §6

[7] = tested on: LeMDR1 knockout (LeMDR1 −/−) L. enriettii; test: Leishmania cell viability (MTS) assay; assay type: cell-based, Leishmania enriettii
From the text: (§7) Cell lines and Cell Culture.

[8] = tested on: LeMDR1 overexpressed L. enriettii (LeV160); test: Leishmania cell viability (MTS) assay; assay type: cell-based, Leishmania enriettii
From the text: as §7

P388/ADR cells [9] = test: cells
Method: as §1, §2

[10] = tested on: tested MDR cell lines (drug resistant breast cancer and leukemia cells); assay type: cell-based; details: tested MDR cell lines; 10 μM
From the text: Cell proliferation assay.

MDA435/LCC6 cells = test: Doxorubicin accumulation; assay type: cell-based, human; details: LCC6, basal P-gp; dimers 10 μM, monomer 20 μM
Method: Doxorubicin accumulation. […] At confluence, culture medium was removed. 2 ml of fresh DMEM with modulators was added and cells were incubated for 30 min at 37° C. Doxorubicin (final concentration of 20 μM) was then added and incubated for 2 h at 37° C. The cells were then harvested by trypsinization.

P388 cells = test: Doxorubicin accumulation; assay type: cell-based, murine
Method: as §3

[11] = target: NBD2 cytosolic domain of mouse P-gp (Mus musculus, UniProt P06795); details: reported in literature; cited from earlier work
Sequence of NBD2 cytosolic domain of mouse P-gp (P06795 1033-1271 limits assumed): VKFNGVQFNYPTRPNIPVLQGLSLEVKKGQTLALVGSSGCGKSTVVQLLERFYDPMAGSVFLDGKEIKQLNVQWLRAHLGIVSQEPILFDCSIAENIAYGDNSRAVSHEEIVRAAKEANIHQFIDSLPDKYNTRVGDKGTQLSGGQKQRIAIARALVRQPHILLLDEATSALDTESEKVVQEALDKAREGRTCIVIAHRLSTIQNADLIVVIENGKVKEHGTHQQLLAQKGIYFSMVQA

[12] = tested on: wild type L. enriettii (Le); test: Leishmania cell viability (MTS) assay; assay type: cell-based, Leishmania enriettii
Method: as §4, §5
as §6, with “After 72-hr incubation, 10 μL of MTS:PMS mixture was added into each well of microtiter plate. The plate was then incubated at 27° C. for 4 hrs for color development.” left out

[13] = Leishmania enriettii, 72 h, read-out: IC50(μM) of synthetic flavonoid, LePentR50, cytotoxicity of compound alone, 72 hrs
[14] = cytotoxicity of compound alone, 72 hrs
[15] = Leishmania enriettii, read-out: IC50 of pentamidine (μg/ml), no modulator

CC(C)=CCc1c(O)cc2oc(-c3ccccc3)cc(=O)c2c1O [6-Prenylchrysin]
inhibition of P-gp mediated drug efflux (leukemic K562/R7 cells): inhibited P-gp mediated drug efflux

CC(C)=CCc1c(O)cc(O)c2c(=O)cc(-c3ccccc3)oc12 [8-Prenylchrysin]
inhibition of P-gp mediated drug efflux (leukemic K562/R7 cells): inhibited P-gp mediated drug efflux

O=c1cc(-c2ccc(OCCOCCOCCOc3ccc(-c4cc(=O)c5c(O)cc(O)cc5o4)cc3)cc2)oc2cc(O)cc(O)c12 [Compound 9c, 1,10-Bis[4′-((5,7-dihydroxy)-4H-chromen-4-on-2-yl)phenyl]-1,4,7,10-tetraoxadecane]
IC60 of doxorubicin with modulator (MDA435/LCC6 MDR cells [1]; 5 μM dimer, FIG. 5): 1.3 µM
reduction of IC60 of doxorubicin, RF (MDA435/LCC6 MDR cells [1]; 5 μM dimer, FIG. 5): about 3.6 RF
enhancement of doxorubicin accumulation, folds of control (MDA435/LCC6 MDR cells [2]): 4.5 folds
activity on doxorubicin accumulation (P388/ADR cells [3]): comparable activity to 9d
pentamidine sensitization [4]: about 2.7 fold
IC50 [4, 13]: > 200 µM
IC50 ([5]; Leishmania donovani, 72 h): 8 ± 0.3 µM
modulatory effect on SSG sensitivity ([5]; SSG-sensitive wild type LdAG83, FIG. 14D): no modulatory effect
reduction of SSG resistance level ([6]; Ld39, 4 μM, FIGS. 17A and 17B): back to the level of the sensitive strain
SSG sensitization ([6]; Ld39, FIG. 18B): 3.1 fold
IC50 ([6]; Leishmania donovani, 72 h): 11 ± 0.7 µM
pentamidine sensitization ([7]; LeMDR1 −/−): 3.8 fold
decrease of IC50 of pentamidine ([8]; LeV160): about 1.8 fold

O=c1cc(-c2ccc(OCCOCCOCCO)cc2)oc2cc(O)cc(O)c12 [Compound 10a, 9-[4′-((5,7-dihydroxy)-4H-chromen-4-on-2-yl)phenyl]-3,6,9,-trioxanonan-1-ol]
doxorubicin resistance reversal (MDA435/LCC6 MDR cells [1]): ineffective reversers
reversing effect on taxol resistance (MDA435/LCC6 MDR cells [1]): little reversing effect
modulatory activity on doxorubicin and daunorubicin cytotoxicity (P388/ADR cells [9]): little modulatory activity
anticancer activity of monomers alone [10]: no anticancer activity
IC50 ([4]; read-out: IC50(μM) of synthetic flavonoid, LePentR50, cytotoxicity of compound alone, 72 hrs): > 200 µM
IC50 [5, 14]: > 200 µM
SSG resistance modulating activity ([6]; Ld39): did not give any significant modulating activity
IC50 [6, 14]: > 200 µM

O=c1cc(-c2ccc(OCCOCCOCCOCCO)cc2)oc2cc(O)cc(O)c12 [Compound 10b, 12-[4′-((5,7-dihydroxy)-4H-chromen-4-on-2-yl)phenyl]-3,6,9,12-tetraoxadodecan-1-ol]
doxorubicin resistance reversal (MDA435/LCC6 MDR cells [1]): ineffective reversers
reversing effect on taxol resistance (MDA435/LCC6 MDR cells [1]): little reversing effect
modulatory activity on doxorubicin and daunorubicin cytotoxicity (P388/ADR cells [9]): little modulatory activity
activity on doxorubicin accumulation (P388/ADR cells [3]): little or no activity at all
anticancer activity of monomers alone [10]: no anticancer activity
IC50 [4, 13]: > 200 µM
IC50 ([5]; Leishmania donovani, 72 h): > 200 µM
SSG resistance modulating activity ([6]; Ld39): did not give any significant modulating activity
IC50 ([6]; Leishmania donovani, 72 h): > 200 µM

COc1ccc(CCN(C)CCCC(C#N)(c2ccc(OC)c(OC)c2)C(C)C)cc1OC (stereo not drawn) [Verapamil, reference compound]
enhancement of doxorubicin accumulation, folds of control (MDA435/LCC6 MDR cells [2]): 6.2 folds
accumulation of doxorubicin in LCC6 (MDA435/LCC6 cells): unaffected
doxorubicin accumulation in parent sensitive cells (P388 cells): almost unaffected
pentamidine sensitization [4]: less than half-fold sensitization

O=c1c(O)c(-c2ccc(O)cc2)oc2cc(O)cc(O)c12 [kaempferol]
binding to NBD2 cytosolic domain of mouse P-gp [11]: bind directly

N=C(N)c1ccc(OCCCCCOc2ccc(C(=N)N)cc2)cc1 [pentamidine, reference compound]
survival of LePentR50 ([4]; 60 μg/ml pentamidine alone): 94.0±2.3 % of untreated
IC50 ([4]; Leishmania enriettii, read-out: IC50 of pentamidine alone, LePentR50, no modulator (DMSO)): 117 µg/mL
IC50 [7, 15]: 18.9 ± 0.8 µg/mL (≈ 55.5 µM)
IC50 [8, 15]: 9 ± 0.1 µg/mL (≈ 26.4 µM)
IC50 of pentamidine (μg/ml), no modulator ([12]; Le wild type): 12.0 ± 0.8 µg/mL
IC50 ([12]; Leishmania enriettii, read-out: IC50 of pentamidine (μg/ml), no modulator, Le wild type): ~8.7 µg/mL (≈ 25.6 µM)

O=c1c(O)c(-c2ccc(O)c(O)c2)oc2cc(O)cc(O)c12 [quecetin]
binding to NBD2 cytosolic domain of mouse P-gp [11]: bind directly

dehydrosilybin
binding to NBD2 cytosolic domain of mouse P-gp [11]: bind directly
